{"source": "patent US7557181B2", "about": "“Pan-HER antagonists and methods of use” (Molecular Logix, Inc., priority 2005, dated 2009)", "key": {"[1]": {"system": "HER5 cells (mouse fibroblast cells that overexpress human EGFR)", "assay": "HER5 cell proliferation stimulation assay (WST-1)", "type": "cell-based", "conditions": "serum-free, 48 hour proliferation period, FIG. 3", "protocol": "Hung (MD Anderson Cancer Center). Stock cultures of HER5 were propagated in D-MEM/F12 medium containing 10% fetal bovine serum, 100 units/ml of penicillin and 100 ug/ml of streptomycin in a water-jacketed incubator at 37° C. in a humidified 5% CO2 atmosphere. For HER5 proliferation assays, the cells were changed into DMEM/F12 without serum for 24 hours. Cells were then trypsinized and suspended at 1E5 cells/ml. […] Fifty microliters of cell suspension (5000 cells) were added to appropriate wells bringing the total volume to 100 ul at the desired concentrations. Plates were incubated for a 48 hour proliferation period. Cell proliferation was determined by addition of 10 ul/well of WST-1 Cell Proliferation Reagent (Roche Applied Sciences, Indianapolis, Ind.) for the last three hours of the proliferation period. WST-1 is a tetrazolium salt that is cleaved to formazan dye by mitochondrial dehydrogenases in viable cells. The amount of formazan was measured at 450 nm using a microplate reader (Dynex Technologies) with MRX Revelation software."}, "[2]": {"system": "MCF-7 cells (human breast cancer cell line that express HER2 and HER3)", "assay": "MCF-7 cell proliferation stimulation assay (WST-1)", "type": "cell-based", "conditions": "serum-free, 72 hours, FIG. 4", "protocol": "MCF-7 cells were obtained from the American Type Culture Collection (ATCC). Stock cultures of MCF-7 were maintained in Eagle's MEM supplemented with 1% ITS-X (Invitrogen) and 10% fetal bovine serum. For proliferation assays, MCF-7 cells were transferred to serum-free medium (SFM) for 24 hours and then trypsinized and suspended at 1E5 cells/mL in SFM. Fifty microliters of cell suspension (5000 cells) were plated per well in 96 well microtiter plates. Serial dilutions of HER ligands or mutant proteins were prepared at twice the final concentration in SFM and 50 ul was added to wells, bringing the final volume to 100 ul at the desired final concentration. Plates were incubated for 72 hours at 37 C in a humidified 5% CO2 atmosphere. Cell proliferation was determined by addition of 10 ul/well of WST-1 Cell Proliferation Reagent (Roche Applied Sciences, Indianapolis, Ind.) for the last three hours of the proliferation period."}}}
{"substance": "Epidermal growth factor [EGF, agonistic ligand for EGFR]", "values": [{"measurement": "stimulation of HER5 cells (proliferation)", "setting": "[1]", "value": "can be stimulated"}, {"measurement": "stimulation of MCF-7 cells (proliferation)", "setting": "[2]", "value": "not"}]}
